Reference: patent US10844044B2 (Vanderbilt University, priority 2018, dated 2020)

molecular target: WDR5 (Homo sapiens (Human), UniProt P61964); experiment: TR-FRET binding assay (displacement of 10mer-Thr-FAM probe from WDR5); settings: not given

Cn1ccn(Cc2cc(C(=O)N[C@H]3CCc4cc(F)ccc43)cc(-c3cccnc3C(F)(F)F)c2)c1=N [Example 129, (S)—N-(5-Fluoro-2,3-dihydro-1H-inden-1-yl)-3-((2-imino-3-methyl-2,3-dihydro-1H-imidazol-1-yl)methyl)-5-(2-(trifluoromethyl)pyridin-3-yl)benzamide] and COc1cc(CNC(=O)c2cc(Cn3ccn(-c4ccccc4)c3=N)cc(-c3ccc(F)cc3C)c2)cc(OC)c1 [Example 133, N-(3,5-Dimethoxybenzyl)-4′-fluoro-5-((2-imino-3-phenyl-2,3-dihydro-1H-imidazol-1-yl)methyl)-2′-methyl-[1,1′-biphenyl]-3-carboxamide] cannot be ordered by Ki: > 33 nM for the first, > 33 nM for the second.

same assay, conditions: read-out: Ki for Inhibition of WDR5 by TR-FRET assay

Compared with Cc1cc([C@@H](NC(=O)c2cc(Cn3ccn(C)c3=N)cc(-c3cncnc3C(F)(F)F)c2)C2CC2)ccc1F [Example 123, (S)—N-(Cyclopropyl(4-fluoro-3-methylphenyl)methyl)-3-((2-imino-3-methyl-2,3-dihydro-1H-imidazol-1-yl)methyl)-5-(4-(trifluoromethyl)pyrimidin-5-yl)benzamide], N=C1SCCN1Cc1cc(C(=O)N[C@H](c2ccc(F)c(F)c2)C2CC2)cc(-c2cccnc2C(F)(F)F)c1 [Example 318, (S)—N-(Cyclopropyl(3,4-difluorophenyl)methyl)-3-((2-iminothiazolidin-3-yl)methyl)-5-(2-(trifluoromethyl)pyridin-3-yl)benzamide] is 1.6-fold higher in Ki: 0.18 nM for the first, 0.29 nM for the second. The first binds more tightly here.

same assay, conditions: read-out: Ki for Inhibition of WDR5 by TR-FRET assay; TR-FRET, 10mer-Thr-FAM probe, WDR5-His tag 2 nM, pH 7.0

Going from COc1cc(-c2cc(Cn3ccn(C)c3=N)cc(C(=O)NCc3ccc(Cl)c(Cl)c3)c2)ccn1 [Example 24, N-(3,4-Dichlorobenzyl)-3-((2-imino-3-methyl-2,3-dihydro-1H-imidazol-1-yl)methyl)-5-(2-methoxypyridin-4-yl)benzamide] to COc1cnccc1-c1cc(Cn2ccn(C)c2=N)cc(C(=O)NCc2ccc(Cl)c(C)c2)c1 [Example 20, N-(4-Chloro-3-methylbenzyl)-3-((2-imino-3-methyl-2,3-dihydro-1H-imidazol-1-yl)methyl)-5-(3-methoxypyridin-4-yl)benzamide], the Ki falls from 25 nM to 2.5 nM (10-fold).

Going from CCOc1c(C(=O)N[C@H](c2ccc(F)c(C)c2)C2CC2)cc(Cn2ccoc2=N)cc1-c1cn(C)nc1C(F)(F)F [Example 304] to CCc1coc(=N)n1Cc1cc(C(=O)N[C@H](c2ccc(F)c(C)c2)C2CC2)cc(-c2cccnc2C(F)(F)F)c1 [Example 256, (S)—N-(Cyclopropyl(4-fluoro-3-methylphenyl)methyl)-3-((4-ethyl-2-iminooxazol-3(2H)-yl)methyl)-5-(2-(trifluoromethyl)pyridin-3-yl)benzamide], the Ki rises from < 0.1 nM to 2.7 nM.

Going from Cc1cc([C@@H](NC(=O)c2cc(CN3CCSC3=N)cc(-c3cn(C4CCCC4)nc3C(F)(F)F)c2)C2CC2)ccc1F [Example 314, (S)-3-(1-Cyclopentyl-3-(trifluoromethyl)-1H-pyrazol-4-yl)-N-(cyclopropyl(4-fluoro-3-methylphenyl)methyl)-5-((2-iminothiazolidin-3-yl)methyl)benzamide] to Cc1cc([C@@H](NC(=O)c2cc(CN3CCCSC3=N)cc(-c3cccnc3C(F)(F)F)c2)C2CC2)ccc1F [Example 315, (S)—N-(Cyclopropyl(4-fluoro-3-methylphenyl)methyl)-3-((2-imino-1,3-thiazinan-3-yl)methyl)-5-(2-(trifluoromethyl)pyridin-3-yl)benzamide], the Ki falls from 4 nM to 1 nM (4-fold).

Going from Cc1cc([C@@H](NC(=O)c2cc(Cn3ccccc3=N)cc(-c3cc(C(F)(F)F)nn3C)c2)C2CC2)ccc1F [Example 346, (S)—N-(Cyclopropyl(4-fluoro-3-methylphenyl)methyl)-3-((2-iminopyridin-(2H)-yl)methyl)-5-(1-methyl-3-(trifluoromethyl)-1H-pyrazol-5-yl)benzamide] to Cc1cc([C@@H](NC(=O)c2cc(CN3CCCOC3=N)cc(-c3cccnc3C(F)(F)F)c2)C2CC2)ccc1F [Example 362, (S)—N-(Cyclopropyl(4-fluoro-3-methylphenyl)methyl)-3-((2-imino-1,3-oxazinan-3-yl)methyl)-5-(2-(trifluoromethyl)pyridin-3-yl)benzamide], the Ki falls from 1.6 nM to 0.72 nM (2.2-fold).

Going from Cc1cc(-c2cc(Cn3ccn(C)c3=N)cc(C(=O)NCc3ncc(Cl)cn3)c2)ccn1 [Example 51, N-((5-Chloropyrimidin-2-yl)methyl)-3-((2-imino-3-methyl-2,3-dihydro-1H-imidazol-1-yl)methyl)-5-(2-methylpyridin-4-yl)benzamide] to Cc1cc(CNC(=O)c2cc(Cn3ccn(C)c3=N)cc(-c3ccnn3C)c2)ccc1Cl [Example 17, N-(4-Chloro-3-methylbenzyl)-3-((2-imino-3-methyl-2,3-dihydro 1H-imidazol-1-yl)methyl)-5-(1-methyl-1H-pyrazol-5-yl)benzamide], the Ki falls from 17 nM to 0.94 nM (18-fold).

CCOc1cc(Cn2ccn(C)c2=N)cc(C(=O)N[C@@H](C)c2ccc(F)c(C)c2)c1 [Example 176, (S)-3-Ethoxy-N-(1-(4-fluoro-3-methylphenyl)ethyl)-5-((2-imino-3-methyl-2,3-dihydro-1H-imidazol-1-yl)methyl)benzamide] and Cc1cc([C@H](C)NC(=O)c2cc(Cn3ccn(C)c3=N)cc(OCC3CC3)c2)ccc1F [Example 181, (S)-3-(Cyclopropylmethoxy)-N-(1-(4-fluoro-3-methylphenyl)ethyl)-5-((2-imino-3-methyl-2,3-dihydro-1H-imidazol-1-yl)methyl)benzamide] are within 1.5-fold of each other in Ki: 0.5 nM for the first, 0.35 nM for the second.

Going from N=c1occn1Cc1cc(C(=O)N[C@H](c2ccc(Cl)c(Cl)c2)C2CC2)cc(-c2ccc(F)cc2OC(F)F)c1 [Example 270, (S)—N-(Cyclopropyl(3,4-dichlorophenyl)ethyl)-2′-(difluoromethoxy)-4′-fluoro-5-((2-iminooxazol-3(2)-yl)methyl)-[1,1′-biphenyl]-3-carboxamide] to N=c1n(Cc2cc(C(=O)N[C@H](c3ccc(Cl)c(Cl)c3)C3CC3)cc(-c3ccc(F)cc3OC(F)F)c2)ccn1C1CC1 [Example 151, (S)—N-(Cyclopropyl(3,4-dichlorophenyl)methyl)-5-((3-cyclopropyl-2-imino-2,3-dihydro-1H-imidazol-1-yl)methyl)-2′-(difluoromethoxy)-4′-fluoro-[1,1′-biphenyl]-3-carboxamide], the Ki rises from 0.18 nM to 0.59 nM (3.3-fold).

Compared with C[C@H](NC(=O)c1cc(Cn2ccn(C)c2=N)cc(-c2cccnc2C(F)(F)F)c1)c1ccc(C(F)(F)F)cc1 [Example 126, (S)-3-((2-Imino-3-methyl-2,3-dihydro-1H-imidazol-1-yl)methyl)-N-(1-(4-(trifluoromethyl)phenyl)ethyl)-5-(2-(trifluoromethyl)pyridin-3-yl)benzamide], Cn1ccn(Cc2cc(C(=O)N[C@H](c3ccc(F)cn3)C3CC3)cc(-c3cccnc3C(F)(F)F)c2)c1=N [Example 128, (S)—N-(Cyclopropyl(5-fluoropyridin-2-yl)methyl)-3-((2-imino-3-methyl-2,3-dihydro-1H-imidazol-1-yl)methyl)-5-(2-(trifluoromethyl)pyridin-3-yl)benzamide] is 9.2-fold higher in Ki: 2.5 nM for the first, 23 nM for the second. The first binds more tightly here.

First: Cc1cc([C@@H](NC(=O)c2cc(Cn3ccn(C)c3=N)cc(N3CCCC3)c2)C2CC2)ccc1F [Example 206, (S)—N-(Cyclopropyl(4-fluoro-3-methylphenyl)methyl)-3-((2-imino-3-methyl-2,3-dihydro-1H-imidazol-1-yl)methyl)-5-(pyrrolidin-1-yl)benzamide]
Second: Cc1cc([C@@H](NC(=O)c2cc(Cn3ccn(C)c3=N)cc(N3CCCC3)c2)C2CC2)ncc1F [Example 208, (S)—N-(Cyclopropyl(5-fluoro-4-methylpyridin-2-yl)methyl)-3-((2-imino-3-methyl-2,3-dihydro-1H-imidazol-1-yl)methyl)-5-(pyrrolidin-1-yl)benzamide]
The Ki of the first is 1.7-fold lower: 0.34 nM for the first, 0.59 nM for the second. The first binds more tightly here.

First: Cc1cc([C@@H](NC(=O)c2cc(Cn3ccn(C)c3=N)cc(-n3ccnc3C)c2)C2CC2)ccc1F [Example 224, (S)—N-(Cyclopropyl(4-fluoro-3-methylphenyl)methyl)-3-((2-imino-3-methyl-2,3-dihydro-H-imidazol-1-yl)methyl)-5-(2-methyl-1H-imidazol-1-yl)benzamide]
Second: Cc1ccnc(C(NC(=O)c2cc(Cn3ccn(C)c3=N)cc(-c3cccn3C)c2)C2CC2)c1 (centres unmarked) [Example 11, N-(Cyclopropyl(4-methylpyridin-2-yl)methyl)-3-((2-imino-3-methyl-2,3-dihydro-1H-imidazol-1-yl)methyl)-5-(1-methyl-1H-pyrrol-2-yl)benzamide]
The Ki of the first is 5.9-fold lower: 0.14 nM for the first, 0.83 nM for the second. The first binds more tightly here.

First: COc1cc(CNC(=O)c2cc(Cn3ccn(C)c3=N)cc(-c3c[nH]c(=O)cc3C)c2)cc(OC)c1 [Example 81, N-(3,5-Dimethoxybenzyl)-3-((2-imino-3-methyl-2,3-dihydro-1H-imidazol-1-yl)methyl)-5-(4-methyl-6-oxo-1,6-dihydropyridin-3-yl)benzamide]
Second: CCOc1cc(Cn2ccn(C)c2=N)cc(C(=O)NCc2ccc(Cl)c(C)c2)c1 [Example 183, N-(4-Chloro-3-methylbenzyl)-3-ethoxy-5-((2-imino-3-methyl-2,3-dihydro-1H-imidazol-1-yl)methyl)benzamide]
The Ki of the first is 18-fold higher: 13 nM for the first, 0.71 nM for the second. The second binds more tightly here.

Compared with Cc1cc(CNC(=O)c2cc(Cn3cc[nH]c3=N)cc(-c3cccn3C)c2)ccc1Cl [Example 19, N-(4-Chloro-3-methylbenzyl)-3-((2-imino-2,3-dihydro-1H-imidazol-1-yl)methyl)-5-(1-methyl-1H-pyrrol-2-yl)benzamide], Cc1cc(F)ccc1-c1cc(Cn2cc[nH]c2=N)cc(C(=O)NCc2ccc(Cl)c(Cl)c2)n1 [Example 6, N-(3,4-Dichlorobenzyl)-6-(4-fluoro-2-methylphenyl)-4-((2-imino-2,3-dihydro-1H-imidazol-1-yl)methyl)picolinamide] is 69-fold higher in Ki: 0.35 nM for the first, 24 nM for the second.

CCn1cc(-c2cc(CN3CCOC3=N)cc(C(=O)NCC3CCOC3)c2)c(C(F)(F)F)n1 (centres unmarked) [Example 290, 3-(1-Ethyl-3-(trifluoromethyl)-1H-pyrazol-4-yl)-5-((2-iminooxazolidin-3-yl)methyl)-N-((tetrahydrofuran-3-yl)methyl)benzamide] showed a Ki of 20 nM.
